For 16 compounds, IC50 results are on record in patent US10722514B2 (FLX Bio, Inc., priority 2017, dated 2020).

The target of the assay is T1, recombinant full-length USP7 (Homo sapiens, UniProt Q93009).
T1 construct: A 25 μl reaction volume containing recombinant full-length USP7 (62 pM)
The assay can be described thus: USP7-mediated ubiquitin-rhodamine cleavage assay. Type of assay: biochemical. As to conditions: recombinant full-length USP7 62 pM; ubiquitin-rhodamine 100 nM; 30-minute incubation, 1 hour reaction at room temperature; read-out: Potency (USP7 IC50). The method, boiled down:
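Full-length recombinant USP7 (62 pM) in 20 mM HEPES pH 7.3, 150 mM NaCl, 1 mM TCEP, 125 μg/ml BSA, 1% DMSO, preincubated with compound 30 min at RT. Ubiquitin-rhodamine (100 nM final) cleaved 1 h at RT in the dark, stopped with acetic acid; rhodamine fluorescence read, IC50 by 4-parameter nonlinear fit.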

T1 sequence (Q93009 whole entry): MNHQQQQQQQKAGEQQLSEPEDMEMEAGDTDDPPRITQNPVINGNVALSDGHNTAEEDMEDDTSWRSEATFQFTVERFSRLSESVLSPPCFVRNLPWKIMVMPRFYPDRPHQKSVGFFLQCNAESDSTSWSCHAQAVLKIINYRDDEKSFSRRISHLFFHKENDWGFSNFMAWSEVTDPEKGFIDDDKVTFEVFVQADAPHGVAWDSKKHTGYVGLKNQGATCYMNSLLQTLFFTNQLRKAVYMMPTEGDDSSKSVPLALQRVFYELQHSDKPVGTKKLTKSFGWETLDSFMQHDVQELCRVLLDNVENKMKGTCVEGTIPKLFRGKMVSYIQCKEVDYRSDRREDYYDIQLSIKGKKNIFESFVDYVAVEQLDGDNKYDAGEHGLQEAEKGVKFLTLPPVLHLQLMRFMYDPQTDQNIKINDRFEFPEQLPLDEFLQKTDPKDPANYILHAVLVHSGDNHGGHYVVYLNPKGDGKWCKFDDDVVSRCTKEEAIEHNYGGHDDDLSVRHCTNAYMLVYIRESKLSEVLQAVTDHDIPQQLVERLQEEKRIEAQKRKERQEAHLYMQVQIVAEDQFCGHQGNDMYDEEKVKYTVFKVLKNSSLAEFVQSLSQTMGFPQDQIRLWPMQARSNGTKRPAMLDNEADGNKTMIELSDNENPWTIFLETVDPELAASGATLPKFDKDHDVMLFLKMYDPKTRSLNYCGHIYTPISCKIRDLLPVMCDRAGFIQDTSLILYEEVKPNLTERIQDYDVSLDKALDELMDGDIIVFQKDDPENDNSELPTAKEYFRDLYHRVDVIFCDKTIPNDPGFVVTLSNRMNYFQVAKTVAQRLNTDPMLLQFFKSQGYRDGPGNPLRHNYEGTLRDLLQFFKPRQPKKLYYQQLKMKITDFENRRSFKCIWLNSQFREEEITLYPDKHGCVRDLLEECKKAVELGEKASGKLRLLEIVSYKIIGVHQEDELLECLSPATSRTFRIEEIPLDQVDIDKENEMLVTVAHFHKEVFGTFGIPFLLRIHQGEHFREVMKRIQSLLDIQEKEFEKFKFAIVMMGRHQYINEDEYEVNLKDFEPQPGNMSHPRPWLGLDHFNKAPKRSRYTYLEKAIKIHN

As for `Cc1cc(Cl)cc(-c2ccnc3cc(Cn4c(=O)ccn(CC(F)(F)F)c4=O)sc23)c1Oc1ccncc1` [Example 681, 3-[[7-[5-chloro-3-methyl-2-(4-pyridyloxy)phenyl]thieno[3,2-b]pyridin-2-yl]methyl]-1-(2,2,2-trifluoroethyl)pyrimidine-2,4-dione; 2,2,2-trifluoroacetic acid], the IC50 is less than 1000 nM.

Regarding `Cc1cc(Cl)cc(-c2ccnc3cc(Cn4c(=O)ccn(CC(F)(F)F)c4=O)sc23)c1OC1CCC(F)(F)CC1` [Example 682, 3-[[7-[5-chloro-2-(4,4-difluorocycllohexoxy)-3-methyl-phenyl]thieno[3,2-b]pyridin-2-yl]methyl]-1-(2,2,2-trifluoroethyl)pyrimidine-2,4-dione], the IC50 is less than 1000 nM.

Take `Cc1cc(Cl)cc(-c2ccnc3cc(Cn4c(=O)ccn(CC(F)(F)F)c4=O)sc23)c1OC1CCC1` [Example 683, 3-[[7-[5-chloro-2-(cyclobutoxy)-3-methyl-phenyl]thieno[3,2-b]pyridin-2-yl]methyl]-1-(2,2,2-trifluoroethyl)pyrimidine-2,4-dione]: the IC50 was less than 1000 nM.

Take `COC1CCN(C2CC(Oc3c(C)cc(Cl)cc3-c3ccnc4cc(Cn5c(=O)ccn(CC(F)(F)F)c5=O)sc34)C2)C1` (stereo not shown) [Example 684, 3-[[7-[5-chloro-2-[3-(3-methoxypyrrolidin-1-yl)cyclobutoxy]-3-methyl-phenyl]thieno[3,2-b]pyridin-2-yl]methyl]-1-(2,2,2-trifluoroethyl)pyrimidine-2,4-dione; 2,2,2-trifluoroacetic acid]: the IC50 was less than 1000 nM.

As to `Cc1cc(Cl)cc(-c2ccnc3cc(Cn4c(=O)ccn(CC(F)(F)F)c4=O)sc23)c1OC1CC(N2CCC(F)C2)C1` (stereo not shown) [Example 685, 3-[[7-[5-chloro-2-[3-(3-fluoropyrrolidin-1-yl)cyclobutoxy]-3-methyl-phenyl]thieno[3,2-b]pyridin-2-yl]methyl]-1-(2,2,2-trifluoroethyl)pyrimidine-2,4-dione; 2,2,2-trifluoroacetic acid], the IC50 was less than 1000 nM.

Take `COC[C@@H]1CCCN1C1CC(Oc2c(C)cc(Cl)cc2-c2ccnc3cc(Cn4c(=O)ccn(CC(F)(F)F)c4=O)sc23)C1` (stereo partly drawn) [Example 686, 3-[[7-[5-chloro-2-[3-[(2S)-2-(methoxymethyl)pyrrolidin-1-yl]cyclobutoxy]-3-methyl-phenyl]thieno[3,2-b]pyridin-2-yl]methyl]-1-(2,2,2-trifluoroethyl)pyrimidine-2,4-dione; 2,2,2-trifluoroacetic acid]: the IC50 was less than 1000 nM.

With `Cc1cc(Cl)cc(-c2ccnc3cc(Cn4c(=O)ccn(CC(F)(F)F)c4=O)sc23)c1OC1CC(N2CCC[C@H]2CF)C1` (stereo partly drawn) [Example 687, 3-[[7-[5-chloro-2-[3-[(2S)-2-(fluoromethyl)pyrrolidin-1-yl]cyclobutoxy]-3-methyl-phenyl]thieno[3,2-b]pyridin-2-yl]methyl]-1-(2,2,2-trifluoroethyl)pyrimidine-2,4-dione; 2,2,2-trifluoroacetic acid], the IC50 is less than 1000 nM.

As for `COC[C@@H]1CCC[N+]1(C)C1CC(Oc2c(C)cc(Cl)cc2-c2ccnc3cc(Cn4c(=O)ccn(CC(F)(F)F)c4=O)sc23)C1` (stereo partly drawn) [Example 688, 3-[[7-[5-chloro-2-[3-[(2S)-2-(methoxymethyl)-1-methyl-pyrrolidin-1-ium-1-yl]cyclobutoxy]-3-methyl-phenyl]thieno[3,2-b]pyridin-2-yl]methyl]-1-(2,2,2-trifluoroethyl)pyrimidine-2,4-dione; 2,2,2-trifluoroacetate; 2,2,2-trifluoroacetic acid], the IC50 was less than 1000 nM.

Take `CCN1CC[C@@H](Oc2c(C)cc(Cl)cc2-c2ccnc3cc(Cn4c(=O)ccn(CC(F)(F)F)c4=O)sc23)[C@@H](C)C1` [Example 690, 3-[[7-[5-chloro-2-[[(3S,4R)-1-ethyl-3-methyl-4-piperidyl]oxy]-3-methyl-phenyl]thieno[3,2-b]pyridin-2-yl]methyl]-1-(2,2,2-trifluoroethyl)pyrimidine-2,4-dione]: the concentration for half-maximal inhibition (IC50) is less than 1000 nM.

In the case of `Cc1cc(Cl)cc(-c2ccnc3cc(Cn4c(=O)ccn(CC(F)(F)F)c4=O)sc23)c1O[C@@H]1CCN(CC(=O)O)C[C@@H]1C` [Example 691, 2-[(3S,4R)-4-[4-chloro-2-[2-[[2,6-dioxo-3-(2,2,2-trifluoroethyl)pyrimidin-1-yl]methyl]thieno[3,2-b]pyridin-7-yl]-6-methyl-phenoxy]-3-methyl-1-piperidyl]acetic acid], the IC50 was less than 1000 nM.

For `CCN(CC)C(=O)CN1CC[C@@H](Oc2c(C)cc(Cl)cc2-c2ccnc3cc(Cn4c(=O)ccn(CC(F)(F)F)c4=O)sc23)[C@@H](C)C1` [Example 692, 2-[(3S,4R)-4-[4-chloro-2-[2-[[2,6-dioxo-3-(2,2,2-trifluoroethyl)pyrimidin-1-yl]methyl]thieno[3,2-b]pyridin-7-yl]-6-methyl-phenoxy]-3-methyl-1-piperidyl]-N,N-diethyl-acetamide], the IC50 was less than 1000 nM.

On to `Cc1cc(Cl)cc(-c2ccnc3cc(CN4C(=O)CN(CC(F)(F)F)C4=O)sc23)c1O[C@H]1CCCNC1` [Example 693, 3-[[7-[5-chloro-3-methyl-2-[[(3S)-3-piperidyl]oxy]phenyl]thieno[3,2-b]pyridin-2-yl]methyl]-1-(2,2,2-trifluoroethyl)imidazolidine-2,4-dione; 2,2,2-trifluoroacetic acid], for which the IC50 is less than 1000 nM.

For `Cc1cc(Cl)cc(-c2ccnc3cc(Cn4c(=O)ccn(CC(F)(F)F)c4=O)sc23)c1O[C@H]1C[C@@H]2NCCO[C@H]2C1` [Example 694, 3-[[7-[2-[[(4aS,6S,7aS)-2,3,4,4a,5,6,7,7a-octahydrocyclopenta[b][1,4]oxazin-6-yl]oxy]-5-chloro-3-methyl-phenyl]thieno[3,2-b]pyridin-2-yl]methyl]-1-(2,2,2-trifluoroethyl)pyrimidine-2,4-dione], the IC50 was less than 1000 nM.

With `Cc1cc(Cl)cc(-c2ccnc3cc(Cn4c(=O)ccn(CC(F)(F)F)c4=O)sc23)c1O[C@@H]1C[C@@H]2NCCO[C@H]2C1` [Example 695, 3-[[7-[2-[[(4aS,6R,7aS)-2,3,4,4a,5,6,7,7a-octahydrocyclopenta[b][1,4]oxazin-6-yl]oxy]-5-chloro-3-methyl-phenyl]thieno[3,2-b]pyridin-2-yl]methyl]-1-(2,2,2-trifluoroethyl)pyrimidine-2,4-dione], the concentration for half-maximal inhibition (IC50) is less than 1000 nM.

For `Cc1cc(Cl)cc(-c2ccnc3cc(Cn4c(=O)ccn(CC(F)(F)F)c4=O)sc23)c1O[C@H]1C[C@@H]2NCCO[C@@H]2C1` [Example 696, 3-[[7-[2-[[(4aS,6S,7aR)-2,3,4,4a,5,6,7,7a-octahydrocyclopenta[b][1,4]oxazin-6-yl]oxy]-5-chloro-3-methyl-phenyl]thieno[3,2-b]pyridin-2-yl]methyl]-1-(2,2,2-trifluoroethyl)pyrimidine-2,4-dione], the IC50 was less than 1000 nM.

Consider `Cc1cc(Cl)cc(-c2ccnc3cc(Cn4c(=O)ccn(CC(F)(F)F)c4=O)sc23)c1OC1CC2(COCCN2)C1` (stereo not shown) [Example 697, 3-[[7-[5-chloro-3-methyl-2-(8-oxa-5-azaspiro[3.5]nonan-2-yloxy)phenyl]thieno[3,2-b]pyridin-2-yl]methyl]-1-(2,2,2-trifluoroethyl)pyrimidine-2,4-dione], for which the concentration for half-maximal inhibition (IC50) is less than 1000 nM.
